This passage reports inhibition results from patent publication US10435399B2, “HDAC6 inhibitory heterocyclic compound” (TAKEDA PHARMACEUTICAL COMPANY LIMITED, priority 2017, dated 2019).

Structures are written as SMILES.

For this experiment, the target named is T1, HDAC6 enzyme (Homo sapiens, UniProt Q9UBN7).
T1 construct: transducing full length HDAC6 gene into Sf-9 insect cells; GST; purchased SignalChem; host or cells: Sf-9 insect cells
T1 sequence (Q9UBN7 1-1215): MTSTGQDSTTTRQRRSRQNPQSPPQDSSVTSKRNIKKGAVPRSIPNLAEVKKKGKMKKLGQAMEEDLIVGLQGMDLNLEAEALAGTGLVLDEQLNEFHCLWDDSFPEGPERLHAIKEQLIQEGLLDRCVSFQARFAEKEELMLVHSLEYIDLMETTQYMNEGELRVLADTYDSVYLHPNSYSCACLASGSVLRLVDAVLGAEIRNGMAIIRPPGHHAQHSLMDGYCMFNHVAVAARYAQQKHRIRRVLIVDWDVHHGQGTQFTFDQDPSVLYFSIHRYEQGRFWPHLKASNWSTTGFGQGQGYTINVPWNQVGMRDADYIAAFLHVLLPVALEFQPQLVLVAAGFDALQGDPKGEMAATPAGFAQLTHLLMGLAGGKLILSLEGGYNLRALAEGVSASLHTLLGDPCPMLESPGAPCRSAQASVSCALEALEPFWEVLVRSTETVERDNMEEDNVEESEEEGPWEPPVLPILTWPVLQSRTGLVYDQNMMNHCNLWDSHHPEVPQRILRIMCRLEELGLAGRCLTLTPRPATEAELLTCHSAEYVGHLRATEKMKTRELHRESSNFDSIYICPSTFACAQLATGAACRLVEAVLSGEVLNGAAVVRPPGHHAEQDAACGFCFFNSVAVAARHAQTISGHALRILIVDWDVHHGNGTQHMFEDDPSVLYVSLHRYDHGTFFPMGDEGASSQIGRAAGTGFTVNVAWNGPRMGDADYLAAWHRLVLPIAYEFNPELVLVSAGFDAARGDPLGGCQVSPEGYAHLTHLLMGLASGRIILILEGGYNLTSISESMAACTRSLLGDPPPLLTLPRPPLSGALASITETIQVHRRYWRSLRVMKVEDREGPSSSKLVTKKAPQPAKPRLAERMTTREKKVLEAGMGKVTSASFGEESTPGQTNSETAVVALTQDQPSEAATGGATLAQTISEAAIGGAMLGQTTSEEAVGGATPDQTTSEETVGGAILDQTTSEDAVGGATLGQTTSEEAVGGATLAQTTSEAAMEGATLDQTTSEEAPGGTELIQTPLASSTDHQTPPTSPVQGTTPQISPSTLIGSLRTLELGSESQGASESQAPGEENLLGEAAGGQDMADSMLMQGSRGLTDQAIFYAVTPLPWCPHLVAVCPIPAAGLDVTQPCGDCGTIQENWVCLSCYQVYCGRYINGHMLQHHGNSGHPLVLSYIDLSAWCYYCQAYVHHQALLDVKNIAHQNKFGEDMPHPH
Kind of experiment: HDAC6 enzyme inhibitory activity (HDAC-Glo I/II Assay kit). It is filed as biochemical. Conditions: 10 μM; wells without enzyme = 100% inhibition; read-out: HDAC6 inhibitory rate (%) (10 μM). In outline: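 Sf-9-derived GST-purified full-length HDAC6 + cpd, 60 min RT, 24 mM Tris pH 7.5/0.6 mM glutathione/0.01% Tween-20; add HDAC-Glo substrate-developer, 20 min RT; luminescence. No-enzyme = 100% inhibition.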

In the case of `O=C1c2cc(-c3nnc(C(F)F)o3)ccc2CN1C[C@H]1CCCCN1S(=O)(=O)C1CC1` [Example 41, 2-(((2R)-1-(cyclopropylsulfonyl)piperidin-2-yl)methyl)-6-(5-(difluoromethyl)-1,3,4-oxadiazol-2-yl)isoindolin-1-one], the inhibition at 10 µM was 98%.

Turning to `O=C1c2cc(-c3nnc(C(F)F)o3)ccc2CN1C[C@H]1CCCCN1C(=O)C1CC1` [Example 42, 2-(((2R)-1-(cyclopropylcarbonyl)piperidin-2-yl)methyl)-6-(5-(difluoromethyl)-1,3,4-oxadiazol-2-yl)isoindolin-1-one], the inhibition at 10 µM is 98%.

For `CC(C)OC(=O)N1CCCC[C@@H]1CN1Cc2ccc(-c3nnc(C(F)F)o3)cc2C1=O` [Example 43, isopropyl (2R)-2-((6-(5-(difluoromethyl)-1,3,4-oxadiazol-2-yl)-1-oxo-1,3-dihydro-2H-isoindol-2-yl)methyl)piperidine-1-carboxylate], the inhibition at 10 µM worked out at 96%.

With `O=C1c2cc(-c3nnc(C(F)F)o3)ccc2CN1C[C@H]1COCCN1S(=O)(=O)C1CC1` [Example 44, 2-(((3S)-4-(cyclopropylsulfonyl)morpholin-3-yl)methyl)-6-(5-(difluoromethyl)-1,3,4-oxadiazol-2-yl)isoindolin-1-one], the inhibition at 10 µM is 100%.

As for `O=C1c2cc(-c3nnc(C(F)F)o3)ccc2CN1C[C@H]1COCCN1C(=O)C1CC1` [Example 45, 2-(((3S)-4-(cyclopropylcarbonyl)morpholin-3-yl)methyl)-6-(5-(difluoromethyl)-1,3,4-oxadiazol-2-yl)isoindolin-1-one], the inhibition at 10 µM turned out to be 99%.

With `CC(C)OC(=O)N1CCOC[C@@H]1CN1Cc2ccc(-c3nnc(C(F)F)o3)cc2C1=O` [Example 46, isopropyl (3S)-3-((6-(5-(difluoromethyl)-1,3,4-oxadiazol-2-yl)-1-oxo-1,3-dihydro-2H-isoindol-2-yl)methyl)morpholine-4-carboxylate], the inhibition at 10 µM was found to be 97%.

Regarding `O=C1c2cc(-c3nnc(C(F)F)o3)ccc2CN1C[C@H]1COCCN1C(=O)C1CCCC1` [Example 47], the inhibition at 10 µM is 99%.

With `COC(=O)N1CCOC[C@@H]1CN1Cc2ccc(-c3nnc(C(F)F)o3)cc2C1=O` [Example 48, methyl (3S)-3-((6-(5-(difluoromethyl)-1,3,4-oxadiazol-2-yl)-1-oxo-1,3-dihydro-2H-isoindol-2-yl)methyl)morpholine-4-carboxylate], the inhibition at 10 µM worked out at 98%.

With `Cc1ccc(S(=O)(=O)N2CCOC[C@@H]2CN2Cc3ccc(-c4nnc(C(F)F)o4)cc3C2=O)cc1` [Example 49, 6-(5-(difluoromethyl)-1,3,4-oxadiazol-2-yl)-2-(((3S)-4-((4-methylphenyl)sulfonyl)morpholin-3-yl)methyl)isoindolin-1-one], the inhibition at 10 µM amounted to 99%.

Take `CCCC(=O)N[C@@H]1CCCC[C@H]1N1Cc2ccc(-c3nnc(C(F)F)o3)cc2C1=O` [Example 50, N-((1R,2R)-2-(6-(5-(difluoromethyl)-1,3,4-oxadiazol-2-yl)-1-oxo-1,3-dihydro-2H-isoindol-2-yl)cyclohexyl)butanamide]: the inhibition at 10 µM turned out to be 101%.

On to `CCCCCC(=O)N[C@@H]1CCCC[C@H]1N1Cc2ccc(-c3nnc(C(F)F)o3)cc2C1=O` [Example 51, N-((1R,2R)-2-(6-(5-(difluoromethyl)-1,3,4-oxadiazol-2-yl)-1-oxo-1,3-dihydro-2H-isoindol-2-yl)cyclohexyl)hexanamide], for which the inhibition at 10 µM stood at 99%.

Take `CCOC(=O)N[C@@H]1CCCC[C@H]1N1Cc2ccc(-c3nnc(C(F)F)o3)cc2C1=O` [Example 52, ethyl ((1R,2R)-2-(6-(5-(difluoromethyl)-1,3,4-oxadiazol-2-yl)-1-oxo-1,3-dihydro-2H-isoindol-2-yl)cyclohexyl)carbamate]: the inhibition at 10 µM was 96%.

For `O=C1c2cc(-c3nnc(C(F)F)o3)ccc2CN1[C@@H]1CCCC[C@H]1N1CCC2(CC2)C1=O` [Example 53, 6-(5-(difluoromethyl)-1,3,4-oxadiazol-2-yl)-2-((1R,2R)-2-(4-oxo-5-azaspiro[2.4]hept-5-yl)cyclohexyl)isoindolin-1-one], the inhibition at 10 µM was 98%.

Take `CCc1cc(CC)n([C@@H]2CCCC[C@H]2N2Cc3ccc(-c4nnc(C(F)F)o4)cc3C2=O)n1` [Example 54, 2-((1R,2R)-2-(3,5-diethyl-1H-pyrazol-1-yl)cyclohexyl)-6-(5-(difluoromethyl)-1,3,4-oxadiazol-2-yl)isoindolin-1-one]: the inhibition at 10 µM was 98%.

For `O=C1c2cc(-c3nnc(C(F)F)o3)ccc2CN1[C@@H]1CCCC[C@H]1n1cc2ccccc2n1` [Example 55, 6-(5-(difluoromethyl)-1,3,4-oxadiazol-2-yl)-2-((1R,2R)-2-(2H-indazol-2-yl)cyclohexyl)isoindolin-1-one], the inhibition at 10 µM worked out at 101%.

With `O=C1c2cc(-c3nnc(C(F)F)o3)ccc2CN1CC1CC1` [Example 56, 2-(cyclopropylmethyl)-6-(5-(difluoromethyl)-1,3,4-oxadiazol-2-yl)isoindolin-1-one], the inhibition at 10 µM worked out at 92%.

For `O=C1c2cc(-c3nnc(C(F)F)o3)ccc2CN1Cc1ccccc1` [Example 58, 2-benzyl-6-(5-(difluoromethyl)-1,3,4-oxadiazol-2-yl)isoindolin-1-one], the inhibition at 10 µM worked out at 98%.

Consider `O=C1c2cc(-c3nnc(C(F)F)o3)ccc2CN1Cc1ccc(C(F)(F)F)cc1` [Example 59, 6-(5-(difluoromethyl)-1,3,4-oxadiazol-2-yl)-2-(4-(trifluoromethyl)benzyl)isoindolin-1-one], for which the inhibition at 10 µM was 94%.

For `O=C1c2cc(-c3nnc(C(F)F)o3)ccc2CN1Cc1ccccn1` [Example 60, 6-(5-(difluoromethyl)-1,3,4-oxadiazol-2-yl)-2-(pyridin-2-ylmethyl)isoindolin-1-one], the inhibition at 10 µM was 96%.

On to `Cc1cc(C)n([C@@H]2CCCC[C@H]2N2Cc3ccc(-c4nnc(C(F)F)o4)cc3C2=O)n1` [Example 61, 6-(5-(difluoromethyl)-1,3,4-oxadiazol-2-yl)-2-((1R,2R)-2-(3,5-dimethyl-1H-pyrazol-1-yl)cyclohexyl)isoindolin-1-one], for which the inhibition at 10 µM came to 99%.

Turning to `CC(C)(C)OC(=O)N[C@@H]1CCCC[C@H]1N1Cc2ncc(-c3nnc(C(F)F)o3)cc2C1=O` [Example 62, tert-butyl ((1R,2R)-2-(3-(5-(difluoromethyl)-1,3,4-oxadiazol-2-yl)-5-oxo-5,7-dihydro-6H-pyrrolo[3,4-b]pyridin-6-yl)cyclohexyl)carbamate], the inhibition at 10 µM was 99%.

For `O=C(CC1CC1)N[C@@H]1CCCC[C@H]1N1Cc2ccc(-c3nnc(C(F)F)o3)cc2C1=O` [Example 63, 2-cyclopropyl-N-((1R,2R)-2-(6-(5-(difluoromethyl)-1,3,4-oxadiazol-2-yl)-1-oxo-1,3-dihydro-2H-isoindol-2-yl)cyclohexyl)acetamide], the inhibition at 10 µM was determined as 99%.

As to `O=C(CCC(F)F)N[C@@H]1CCCC[C@H]1N1Cc2ccc(-c3nnc(C(F)F)o3)cc2C1=O` [Example 64, N-((1R,2R)-2-(6-(5-(difluoromethyl)-1,3,4-oxadiazol-2-yl)-1-oxo-1,3-dihydro-2H-isoindol-2-yl)cyclohexyl)-4,4-difluorobutanamide], the inhibition at 10 µM is 100%.
